In paper PMC11373198, “In vitro efficacy of next-generation dihydrotriazines and biguanides against babesiosis and malaria parasites” (Antimicrobial Agents and Chemotherapy, 2024):
Like-named read-outs stand apart in the source and are kept apart here.

What was measured:
Babesia bovis = test system: Babesia bovis; parameters: method as in PMID 18794380, PMID 21904052; settings: cited from earlier work
Babesia gibsoni = test system: Babesia gibsoni; parameters: method as in PMID 18794380, PMID 21904052; settings: cited from earlier work
B. microti = test system: B. microti; parameters: method as in PMID 7447406; settings: Mongolian jirds; cited from earlier work
P. falciparum Dd2 = assay: In vitro growth inhibition of P. falciparum Dd2 (SYBR Green-I); assay type: cell-based, Plasmodium falciparum; settings: DFS20 medium, read-out: PfDd2 (IC50 in nM)
B. duncani (WA-1) = assay: In vitro growth inhibition of B. duncani in human erythrocytes (SYBR Green-I); assay type: cell-based, Babesia duncani; settings: for IC50: 60 h; for activity against B. duncani, structure-activity relationship: analogs compared within screening, 2-chloro, 4-trifluoromethoxy series or terminal aryl heterocycles
B. divergens (Rouen87) = assay: In vitro growth inhibition of B. divergens in human erythrocytes (SYBR Green-I); assay type: cell-based; settings: Babesia divergens, Erythrocyte, DFS20 medium
Protocol: (§1) The effect of DHT derivatives on the intraerythrocytic development of P. falciparum, B. duncani, B. divergens and B. MO1 and the determination of IC50 values were conducted as previously reported ([54], [67]). Briefly, the parasites cultured in vitro (0.1% parasitemia with 5% hematocrit in complete DFS20 medium or RPMI-1640) were treated with various concentrations of the compounds in a 96-well plate and incubated at 37 °C for either 60 h in the case of B. duncani or 72 h in the case of P. falciparum. Parasitemia was then determined using the SYBR Green-I method by adding an equal volume of parasite culture to the lysis buffer (0.008% saponin, 0.08% Triton-X-100, 20 mM Tris-HCl (pH = 7.5), and 5 mM EDTA) containing SYBR Green-I (0.01%). The mixture was then incubated at 37°C for 1 h in the dark. The fluorescence was measured at 480 nm (excitation) and 540 nm (emission) using a BioTek Synergy™ Mx Microplate Reader. Background fluorescence from uninfected erythrocytes maintained in a complete DFS20 and RPMI-1640 medium was subtracted from each sample, and the 50% inhibitory concentration (IC50) of the drug was determined by plotting drug concentrations versus parasite growth using GraphPad Prism 9.2.1. Data are shown as mean ± SD from two biological replicates with three technical replicates.

P. falciparum HB3 = assay: In vitro growth inhibition of P. falciparum HB3 (SYBR Green-I); assay type: cell-based, Plasmodium falciparum; settings: DFS20 medium, read-out: PfHB3 (IC50 in nM)
P. falciparum 3D7 = assay: In vitro growth inhibition of P. falciparum 3D7 (SYBR Green-I); assay type: cell-based, Plasmodium falciparum
[1] = test system: human cell lines (HepG2, HCT-116, HEK-293, and HeLa); assay: Cytotoxicity on human cell lines, average / overall, and therapeutic index; assay type: cell-based; settings: HepG2, HCT-116, HEK-293, HeLa, MTT 72 h
Protocol: HeLa, HepG2, HEK293, and HCT116 cell lines were obtained from the American Type Culture Collection (ATCC) and maintained in Dulbecco’s modified Eagle’s medium (DMEM) (Invitrogen 11995–065) containing 25 mM glucose, 1 mM sodium pyruvate, and supplemented with 5 mM HEPES, 10% FBS, and penicillin-streptomycin (50 U/mL penicillin, 50 µg/mL streptomycin). Cells were seeded in a 96-well tissue culture plate (20,000 cells per well) and allowed to adhere for 24 hours, after which they were treated with a 12-step 2-fold serial dilution of each drug starting at 1 mM as the highest final concentration. Cells maintained in the medium supplemented with either 0.1% or 10% DMSO were used as negative and positive vehicle controls, respectively. The plates were incubated at 37 °C for 72 h, after which each well was incubated with 0.5 mg/mL of MTT reagent (MP Chemicals #02102227) for 4 h in the dark at 37 °C. The formazan crystals formed by living cells were solubilized with the addition of 100 µL of DMSO to each well. We measured the OD590nm using a SpectraMax plate reader. From the obtained OD values, percent cell viability was estimated by normalizing to the mean of 10% DMSO wells (set as 100% toxicity) and mean of the vehicle control wells (set as 0% toxicity). Dose-response curves were plotted using GraphPad Prism version 9.1.2.

B. MO1 = assay: In vitro growth inhibition of B. MO1 in human erythrocytes (SYBR Green-I); assay type: cell-based, Babesia MO1; settings: DFS20 medium
Protocol: as §1

B. duncani = test system: B. duncani; parameters: method as in PMID 37055610; settings: previous studies; read-out: IC50 against B. duncani; cited from earlier work
[2] = Plasmodium falciparum, DD2, 72 h
[3] = Babesia duncani, Erythrocyte, read-out: B. duncani WA1 (IC50 in nM), DFS20 medium, 60 h
[4] = Plasmodium falciparum, HB3, 72 h
[5] = Plasmodium falciparum, 3D7, 72 h, DFS20 medium, 72 h, read-out: Pf3D7 (IC50 in nM)
[6] = Plasmodium falciparum, 3D7, DFS20, Table S3, read-out: P.falciparum 3D7 (IC50 in nM), DFS20
[7] = Plasmodium falciparum, 3D7, RPMI-1640 + 10% human serum, read-out: P.falciparum 3D7 (IC50 in nM), RPMI-1640 + 10%human serum

Row | SMILES | inhibition of in vitro parasite growth of Babesia bovis (Babesia bovis) | inhibition of in vitro parasite growth of Babesia gibsoni (Babesia gibsoni) | activity against B. microti infection (B. microti) | IC50 (P. falciparum Dd2; [2]) [nM] | IC50 (B. duncani (WA-1); [3]) [nM] | IC50 (B. divergens (Rouen87)) [nM] | IC50 (P. falciparum HB3; [4]) [nM] | IC50 (P. falciparum 3D7; [5]) [nM] | IC50 (P. falciparum 3D7; [6]) [nM] | IC50 (P. falciparum 3D7; [7]) [nM] | IC50 [1] [µM] | IC50 (B. MO1; Babesia, Erythrocyte) [nM] | IC50 (P. falciparum Dd2; 72 h) [nM] | IC50 (B. duncani (WA-1); read-out: B. duncani WA1 (IC50 in nM), DFS20 medium) [nM] | IC50 (P. falciparum HB3; 72 h) [nM] | IC50 (P. falciparum 3D7; DFS20 medium, 72 h, read-out: Pf3D7 (IC50 in nM)) [nM] | IC50 (B. MO1) [nM] | activity against B. duncani, structure-activity relationship (B. duncani (WA-1)) | IC50 (B. duncani) [nM]
1 | CN(Cc1cnc2nc(N)nc(N)c2n1)c1ccc(C(=O)N[C@@H](CCC(=O)O)C(=O)O)cc1 [methotrexate] | moderate to effective inhibition | moderate to effective inhibition | – | – | – | – | – | – | – | – | – | – | – | – | – | – | – | – | –
2 | COc1cc(Cc2cnc(N)nc2N)cc(OC)c1OC [trimethoprim] | moderate to effective inhibition | moderate to effective inhibition | little to no activity | – | – | – | – | – | – | – | – | – | – | – | – | – | – | – | –
3 | COc1ccc(OCCCON2C(N)=NC(N)=NC2(C)C)cc1 [JPC-1044] | – | – | – | 0.6 ± 0.14 | 7.1 ± 0.32 | 12 ± 0.16 | 0.42 ± 0.25 | 3.3 ± 2 | 2 ± 0.02 | 3.8 ± 0.022 | 62 | 0.2 ± 0.15 | – | – | – | – | – | – | –
4 | Cc1cc(NS(=O)(=O)c2ccc(N)cc2)no1 [sulfamethoxazole] | – | – | little to no activity | – | – | – | – | – | – | – | – | – | – | – | – | – | – | – | –
5 | CC1(C)N=C(N)N=C(N)N1OCCCOc1ccc(Cl)cc1Cl [JPC-210] | – | – | – | 0.05 ± 0.01 | 3.6 ± 0.42 | 3.1 ± 1.42 | 0.4 ± 0.07 | 3.1 ± 1.24 | 1.6 ± 0.025 | 1.2 ± 0.1 | 69 | 0.8 ± 0.24 | – | – | – | – | – | – | –
6 | CCC(C)C1(C)N=C(N)N=C(N)N1OCCCOc1cc(Cl)c(Cl)cc1Cl (centres unmarked) [JPC-2748] | – | – | – | 12 ± 1.13 | 4.4 ± 0.01 | 3.7 ± 0.3 | 0.41 ± 0.07 | 3 ± 0.77 | 0.2 ± 0.12 | 2 ± 0.061 | 1.5 | 4 ± 0.74 | – | – | – | – | – | – | –
7 | CC1(C)N=C(N)N=C(N)N1OCCCOc1ccccc1OC(F)(F)F [JPC-2060] | – | – | – | ~0.4 | ~0.8 | ~4 | ~0.6 | ~1.9 | 1.9 ± 0.29 | 0.8 ± 0.17 | 15 | ~0.5 | 0.77 ± 0.4 | 1 ± 0.06 | 0.7 ± 0.1 | 2.3 ± 0.5 | 0.6 ± 0.07 | – | –
8 | CC1(C)N=C(N)N=C(N)N1OCCCOc1ccc(-n2cncn2)cc1 [JPC-1059] | – | – | – | 0.3 ± 0.02 | 10.3 ± 0.7 | 3.7 ± 0.7 | 0.3 ± 0.17 | 2 ± 0.64 | 1.3 ± 0.09 | 1.4 ± 0.021 | 132 | 5.4 ± 1.4 | – | – | – | – | – | beneficial | –
9 | CCc1nc(N)nc(N)c1-c1ccc(Cl)cc1 [pyrimethamine, 2,4-Diamino-5-(4-chlorophenyl)−6-ethylpyrimidine] | moderate to effective inhibition | moderate to effective inhibition | little to no activity | – | – | – | – | – | – | – | – | – | – | – | – | – | – | – | 940
10 | Nc1ccc(S(=O)(=O)c2ccc(N)cc2)cc1 [dapsone] | – | – | little to no activity | – | – | – | – | – | – | – | – | – | – | – | – | – | – | – | –
11 | CC1(C)N=C(N)N=C(N)N1OCCCOc1ccc(-c2nnnn2C(C)(C)C)cc1 [JPC-3671] | – | – | – | 17 ± 1.5 | 1.6 ± 0.5 | 24 ± 2.14 | 0.4 ± 0.02 | 1 ± 0.32 | 2.1 ± 0.016 | 2.6 ± 0.02 | 38 | 6.5 ± 0.7 | – | – | – | – | – | beneficial | –
12 | CC1(C)N=C(N)N=C(N)N1OCCCOc1ccc(Cl)c(C#N)c1 [JPC-2053] | – | – | – | 0.5 ± 0.045 | 13.4 ± 1.41 | 6.6 ± 1.7 | 0.75 ± 0.34 | 2.6 ± 1.51 | 1.5 ± 0.071 | 1.4 ± 0.021 | 26 | 0.6 ± 0.5 | – | – | – | – | – | – | –
13 | NC1=NC(c2cccnc2)N(OCCCOc2ccc(OC(F)(F)F)cc2Cl)C(N)=N1 (centres unmarked) [JPC-3681] | – | – | – | 0.45 ± 0.03 | 2 ± 0.2 | 6.4 ± 0.7 | 0.8 ± 0.07 | 2.3 ± 0.3 | 0.7 ± 0.072 | 1 ± 0.08 | 38 | 1 ± 0.07 | – | – | – | – | – | increased activity | –
14 | NC1=NC(c2ccc(F)cc2)N(OCCCOc2ccc(OC(F)(F)F)cc2Cl)C(N)=N1 (centres unmarked) [JPC-3680] | – | – | – | 37 ± 1.25 | 3.2 ± 0.21 | 40 ± 0.7 | 2.1 ± 0.33 | 1.7 ± 0.7 | 1.2 ± 0.03 | 1.8 ± 0.3 | 10 | 6 ± 0.5 | – | – | – | – | – | increased activity | –
